The values that follow come from patent US8338445B2, “Crystal form of cabergoline” (Lek Pharmaceuticals D.D., priority 2007, dated 2012).

Series [1] in a line: Residual solvents after comparable drying of crystal forms. The following applies: after drying at 35° C. at 5 mBar for 48 h; both forms isolated from same solvent mixture. The class given is physicochemical. The procedure: Cabergoline from L isolated by the process of the invention can be washed by cold aliphatic hydrocarbons or digesting previously isolated material in a suspension of aliphatic hydrocarbons preferably heptane to remove impurities and finally dried in vacuo at temperature from 20 to 80° C., preferably from 30 to 50° C., preferably 30 to 40° C. to remove residual solvents. […] Form L and form I are isolated from the same solvent mixture, but form I is captured as an early precipitate as described in Example B and contains below 5% of form L. Solvents are easier removed if cabergoline is in the form of needles.
6.1 g of cabergoline obtained in example 1 were dissolved in 12 ml of 2-chlorotoluene by agitating at room temperature. The solution was cooled down to −30° C. while stirring. The gel-like material was formed after 60 minutes. Furthermore 150 ml of n-heptane were added and let stirring 1 hour at −20° C. Further the solvent was exchanged with 100 ml of fresh n-heptane, precooled to −20° C. and let stirring 1 hour at −20° C. Afterwards the temperature was slowly raising to 0° C. (0.5 K/min) and small samples were analyzed.

Series [2] in a line: Particle size distribution by the Malvern method. Type of series: physicochemical. The method, then: Physically pure cabergoline form L is isolated in a form of fine needles what is shown in the SEM picture. Average shorter axis of the needles is below 10 μm. Milling of cabergoline form L isolated by the process of the invention by a hammer mill gives particle size distribution d 0.9 below 10 μm.
6.1 g of cabergoline obtained in Example 1 were dissolved in 12 ml of 2-chlorotoluene by agitating at room temperature. The solution was cooled down to −30° C. while stirring. The gel-like material was formed after 60 minutes. Furthermore 150 ml of n-heptane were added and let stirring 1 hour at −20° C. Further the solvent was exchanged with 100 ml of fresh n-heptane, precooled to −20° C. and let stirring 1 hour at −20° C. Afterwards the temperature was raised to 10° C. (0.5 K/min) and further stirred for 1 hour, The temperature was raised to 20° C. (0.5 K/min) followed by stirring for 5 hour. The obtained dense suspension was filtered and washed with 50 ml of n-heptane and dried at 40° C. and 5 mbar for 24 hours. The obtained needle-like product (5.5 g) was identified as cabergoline form L. Particle size distribution of the product of Example 2 is the following: d 0.1=0.4 um; d 0.5=4.2 um; d 0.9=33 um.
Particle size distribution was measured by the Malvern method.

For `C=CCN1C[C@H](C(=O)N(CCCN(C)C)C(=O)NCC)C[C@@H]2c3cccc4[nH]cc(c34)C[C@H]21` [Cabergoline form L, 1-((6-allylergolin-8β-yl)-carbonyl)-1-(3-dimethylaminopropyl)-3-ethylurea], in series [1], the “residual solvent 2-Chlorotoluene” value was found to be 236 ppm and the “residual solvent Heptane” value stood at 186 ppm. The “particle size distribution d 0.9” value in series [2] (after milling by a hammer mill) was “below 10 μm”. In series [2] (product of Example 2, unmilled), the “Particle size distribution d 0.1” value is recorded as 0.4 um, the “Particle size distribution d 0.5” value was determined as 4.2 um and the “particle size distribution d 0.9” value was determined as 33 um.
For `C=CCN1C[C@H](C(=O)N(CCCN(C)C)C(=O)NCC)C[C@@H]2c3cccc4[nH]cc(c34)C[C@H]21` [Cabergoline form I, 1-((6-allylergolin-8β-yl)-carbonyl)-1-(3-dimethylaminopropyl)-3-ethylurea, reference compound], in series [1], the “residual solvent 2-Chlorotoluene” value is listed as 333 ppm and the “residual solvent Heptane” value came to 764 ppm.
